The source of these data is PMC8510269, “A Simple Method of Synthesis of 3-Carboxy-2,2,5,5-Tetraethylpyrrolidine-1-oxyl and Preparation of Reduction-Resistant Spin Labels and Probes of Pyrrolidine Series” (Molecules, 2021).

A word on the melting point: it is the temperature of the solid-liquid transition.

Like-named read-outs stand apart in the source and are kept apart here.

The nature of series [1]: Partition coefficient octanol/water estimated from EPR amplitudes. It counts as physicochemical. Conditions: ratio of concentrations in octanol to water; distilled water. How it is done: (§1) The EPR spectra in water were recorded on a Bruker ER-200D-SRC spectrometer in 50 µL glass capillary for 0.2–0.4 mM radical solutions degassed via bubbling with argon. Spectrometer settings: frequency, 9.87 GHz; microwave power, 5.0 mW; modulation amplitude, 0.05 mT; time constant, 50–100 ms; and conversion time, 5.12 ms. For kinetic measurements in water, stock solutions of nitroxide, ascorbic acid and glutathione in phosphate buffer (5 mM, pH 7.4) were prepared, and pH was adjusted to 7.4 with NaOH or HCl. All the solutions were deoxygenated with argon, carefully and quickly mixed in a small tube to attain final concentrations (nitroxide, 0.2–04 mM; GSH, 2 mM; and ascorbate, 100–300 mM) and were placed into an EPR capillary (50 μL). The capillary was sealed on both sides and placed into the EPR resonator. The decay of amplitude of the low-field component of the EPR spectrum was followed to obtain the kinetics. The initial part of the decay curves (up to 200 min) was used for fitting. Kinetics of the decay was fitted to a monoexponential function to calculate the first-order rate constants. Then, these constants were divided by the concentration of ascorbic acid to calculate the second-order reaction constants (Figure S3). Partition coefficients in a water–octanol mixture were estimated from the amplitudes of the EPR spectra of a nitroxide in water after extensive shaking with different portions of added octanol and separation using centrifugation.

Series [2] can be described thus: Reduction of nitroxides with ascorbate in the presence of glutathione (EPR kinetics). Conditions: nitroxide 0.3–0.4 mM, ascorbate 100–300 mM, 50 mM phosphate buffer, pH 7.4, 25 °C, glutathione 2 mM. It counts as physicochemical. How it is done:
as §1, with “For kinetic measurements in water, stock solutions of nitroxide, ascorbic acid and glutathione in phosphate buffer (5 mM, pH 7.4) were prepared, and pH was adjusted to 7.4 with NaOH or HCl.” left out

The nature of series [3]: Decay of nitroxides in murine blood (EPR). It counts as in vitro ADME, mice. Conditions: nitroxide 0.2 mM. The procedure:
(§2) The measurements of kinetics of nitroxide decay in blood and tissue homogenates were performed using an Elexsys E540 X-band spectrometer in a 50 µL glass capillary for 0.2 mM solutions, with the following spectrometer settings: frequency, 9.87 GHz; centerfield, 350.6 mT; sweep range, 10 mT; microwave power, 2.0 mW; modulation amplitude, 0.1 mT; time constant, 10.24 ms; and conversion time, 20.48 ms.
(§3) The stock solutions of the nitroxides 25 and 31 in water ([…]) were prepared, and pH was adjusted to 7.0 with NaOH. A total of 2 μL of the nitroxide solution was added to 98 μL of the blood or tissue homogenate, giving a nitroxide concentration equal to 0.2 mM. The resulting mixture of nitroxide with blood or tissue homogenate was transferred to the glass capillary (50 μL) and the latter was placed into the EPR resonator. The decay of the double integral of the EPR spectrum was followed to obtain the kinetics.
Male five-month-old C57BL/6 mice were obtained from the Breeding Experimental Animal Laboratory of the Institute of Cytology and Genetics (ICG), Siberian Division of the Russian Academy of Sciences (Novosibirsk, Russia). All the experiments were carried out according to Animal Care Regulations of the Institute of Cytology and Genetics (ICG), Novosibirsk. Animals were sacrificed by decapitation, blood was collected into a microcentrifuge tube with heparin (final concentration 5%), gently rocked by hand and snap-frozen with liquid nitrogen immediately after collection. Organ tissue (brain, heart, liver and kidney) was excised on ice, rinsed with ice-cold 10 mM PBS (pH 7.4), sheared with scissors and homogenized in PBS (1/1 by weight) on ice using electric homogenizer fitted with a Teflon head. The homogenates were then additionally mixed with PBS (1/1 by weight, final dilution 1/3) to decrease viscosity for further aspiration into glass capillaries, and snap-frozen in liquid nitrogen. […]

For series [4] the following is noted: literature value, cited from earlier work.
Details of series [5]: method as in PMID 25348344. Conditions: cited from earlier work.
A short description of series [6]: Decay of nitroxides in tissue homogenates (brain, kidney, liver, heart; EPR). It counts as in vitro ADME, mice. Conditions: nitroxide 0.2 mM. How it is done:
as §2, §3
Male five-month-old C57BL/6 mice were obtained from the Breeding Experimental Animal Laboratory of the Institute of Cytology and Genetics (ICG), Siberian Division of the Russian Academy of Sciences (Novosibirsk, Russia). All the experiments were carried out according to Animal Care Regulations of the Institute of Cytology and Genetics (ICG), Novosibirsk. […]

Compound `CCC1(CC)CC(C(=O)O)C(CC)(CC)N1` (stereo not shown) [Nitroxide 15, 3-Carboxy-2,2,5,5-tetraethylpyrrolidine] registered a melting point of 113 to 114 °C.

With `CCC1(CC)CC(CN)C(CC)(CC)N1[O]` (stereo not shown) [Nitroxide 22, 3-Aminomethyl-2,2,5,5-tetraethylpyrrolidine-1-oxyl], the “Kp (partition coefficient octanol/water)” value in series [1] is given as 5.5. Further, the “kred × 10^4 (second-order rate constant for the initial rate of reduction with ascorbate)” value in series [2] amounted to 4.1 ± 0.2 M^−1 s^−1. For the same compound, the “Decay in blood (in words)” value in series [3] (30 min) is recorded as “No decay”.

For the compound `CCC1(CC)CC(CNC(=O)CN2CCCC2)C(CC)(CC)N1[O]` (stereo not shown) [Nitroxide 29, 3-(2-(Pyrrolidin-1-yl)acetamidomethyl)-2,2,5,5-tetraethylpyrrolidine-1-oxyl], in series [1], the “Kp (partition coefficient octanol/water)” value is recorded as 70. For the same compound, the “kred × 10^4 (second-order rate constant for the initial rate of reduction with ascorbate)” value in series [2] is 2.5 ± 0.4 M^−1 s^−1.

`CCC1(CC)CC(C(=O)OC)C(CC)(CC)N1O.Cl` (stereo not shown): the melting point was in the range of 148 to 150 °C.

Turning to `CCC1(CC)CC(C(=O)O)C(CC)(CC)N1[O]` (stereo not shown) [Nitroxide 1, 3-Carboxy-2,2,5,5-tetraethylpyrrolidine-1-oxyl], the “Kp (partition coefficient octanol/water)” value in series [1] is recorded as 270. In series [2], the “kred × 10^4 (second-order rate constant for the initial rate of reduction with ascorbate)” value was found to be 3.3 ± 0.5 M^−1 s^−1. The results for the “kred × 10^4 (second-order rate constant of reduction with ascorbate)” value in series [4] (ref 9), in series [4] (ref 14) and in series [4] (ref 45) were 20 ± 10 M^−1 s^−1, at most 10 M^−1 s^−1 and 12.5 ± 0.3 M^−1 s^−1, respectively. Further, in series [5], the “Decay in cytosolic extract compared with trityl radical” value is given as “slower decay in cytosolic extract than trityl radical”.

Consider “3-(2-Triphenylphosphonio)acetamidomethyl-2,2,5,5-tetraethylpyrrolidine-1-oxyl chloride [Nitroxide 28]”, for which the “Kp (partition coefficient octanol/water)” value in series [1] was 13. Further, the “kred × 10^4 (second-order rate constant for the initial rate of reduction with ascorbate)” value in series [2] came out at 2.4 ± 0.4 M^−1 s^−1. In series [3], the “Time to plateau of decay in blood” value turned out to be 10 min. In addition, the “Decrease of concentration in blood” value in series [3] (plateaus in 10 min) is recorded as “ca. 10%”. Besides, in series [6] (mouse brain homogenate), the “Decay in homogenate of brain” value is listed as “Faster decay of 28 as compared to 22”. Also, the “Decay in homogenate of liver” value in series [6] (mouse liver homogenate) is reported as “Faster decay of 28 as compared to 22”.

`CCC1=[N+]([O-])C(CC)(CC)C(C(=O)O)C1` (stereo not shown) [Nitroxide 8, 3-Carboxy-2,2,5-triethyl-3,4-dihydro-2H-pyrrole 1-oxide] came in with a melting point of 145 to 146 °C.

Take `CCC1(CC)CC(CN2CCCCC2)C(CC)(CC)N1[O]` (stereo not shown) [Nitroxide 30, 3-((Piperidin-1-yl)methyl)-2,2,5,5-tetraethylpyrrolidine-1-oxyl]: the “Kp (partition coefficient octanol/water)” value in series [1] was 30. In addition, the “kred × 10^4 (second-order rate constant for the initial rate of reduction with ascorbate)” value in series [2] is 2.2 ± 0.5 M^−1 s^−1.
